# pIC50: −log10 of the molar value.
# Target: 5α-reductase
# Experiment: Inhibitory activity on 5α-reductase in vitro (rat prostate enzyme, [4-C14]-testosterone conversion to dihydrotestosterone)
# Type: biochemical
# Details: male rat prostate enzyme; [4-C14]-testosterone 1.5 n mol, NADPH; 60 mins at 37° C.; pH 7.4 buffer
# Description: The test was carried out with reference to the method of J. Shimazaki et al [See Endocrinol, Japon., 18, 179 (1971).]
# Male rat's prostate (4 g) was homogenized with its triple volume of 0.1M HEPES buffer (PH 7.4) including 0.25M cane sugar and was centrifuged at 3000 r.p.m. for 10 mins.
# The precipitate was suspended into the buffer solution described above (10 ml), and the suspension was centrifuged at 3000 r.p.m for 5 mins. The resulting precipitated was suspended in the buffer solution (3 ml) described above and was used as a sauce of enzyme.
# A reaction mixture (total volume 0.1 ml) of [4-C^14 ]-testosterone (1.5n mol, 1.5×10^5 cpm), NADPH (0.5 μmol), enzyme solution (0.03 ml) described above and several kinds of concentration of the compounds in the present invention was incubated for 60 mins at 37° C. Enzyme reaction was quenched by addition of a mixture (0.4 ml) of chloroform and methanol (1:2), and the mixture was centrifuged at 2000 r.p.m for 3 mins. The supernatant (50 μl) was spotted on silica gel thin layer plate. The spot on the plate was developed with a mixture of chloroform, methanol and acetic acid (99.2:0.6:0.2). Radioactivity of dihydrotestosteron generated on plate was measured by TLC scanner of radio-autography and inhibitory ratio was calculated.
row,SMILES,pIC50
1,C/C(=C\C(=O)Nc1ccccc1OCCCC(=O)O)c1ccc(CC(C)(C)C)cc1 [1 (b)],6.43
2,"CCC(CC)Cc1ccc(/C(C)=C/C(=O)Nc2ccccc2OCCCC(=O)O)cc1 [1 (c), 4-[2-{4-(2-ethylbutyl)-β-methylcinnamoylamino}phenoxy]butanoic acid]",6.52
3,"CCCC(C)Cc1ccc(/C(C)=C/C(=O)Nc2ccccc2OCCCC(=O)O)cc1 (stereo not drawn) [1 (d), 4-[2-{4-(2-methylpentyl)-β-methylcinnamoylamino}phenoxy] butanoic acid]",6.47
4,"CCCCCOc1ccc(/C(C)=C/C(=O)Nc2ccccc2OCCCC(=O)O)c(F)c1 [1 (e), 4-[2-(2-fluoro-4-pentyloxy-β-methylcinnamoylamino)phenoxy]butanoic acid]",6.55
5,"CCCCSc1ccc(/C(C)=C/C(=O)Nc2ccccc2OCCCC(=O)O)cc1 [1 (f), 4-[2-(4-butylthio-β-methylcinnamoylamino)phenoxy]butanoic acid]",6.37
6,"C/C(=C\C(=O)Nc1ccccc1OCCCC(=O)O)c1ccc(CC2CCCCC2)cc1 [1 (h), 4-[2-(4-cyclohexylmethyl-β-methylcinnamoylamino)phenoxy] butanoic acid]",6.55
7,"C/C(=C\C(=O)Nc1ccccc1OCCCC(=O)O)c1ccc(CCCCc2ccccc2)cc1 [1 (i), 4-[2-{4-(4-phenylbutyl)-β-methylcinnamoylamino)phenoxy] butanoic acid]",6.49
8,"C/C(=C\C(=O)Nc1ccccc1OCCCC(=O)O)c1ccc(Oc2ccccc2)cc1 [1 (j), 4-[2-(4-phenoxy-β-methylcinnamoylamino)phenoxy]butanoic acid]",6.60

# Stronger by pIC50, values ahead:
row,pIC50,SMILES
1,6.62,"CCCCCc1cccc(/C=C(\C)C(=O)Nc2ccccc2OCCCC(=O)O)c1 [1 (k), 4-[2-(3-pentyl-α-methylcinnamoylamino)phenoxy]butanoic acid]"
2,6.64,"C/C(=C\c1ccc(CCc2ccccc2)cc1)C(=O)Nc1ccccc1OCCCC(=O)O [1 (l), 4-[2-(4-phenethyl-α-methylcinnamoylamino)phenoxy]butanoic acid]"
3,6.70,"CCCCCc1ccc(/C(C)=C/C(=O)Nc2ccccc2OCCCC(=O)O)cc1 [Example 1, 4-[2-(4-pentyl-β-methylcinnamoylamino)phenoxy]butanoic acid]"
4,6.80,"CCCCCc1cccc(/C(C)=C/C(=O)Nc2ccccc2OCCCC(=O)O)c1 [1 (a), 4-[2-(3-pentyl-β-methylcinnamoylamino)phenoxy]butanoic acid]"
5,6.96,"C/C(=C\C(=O)Nc1ccccc1OCCCC(=O)O)c1ccc(CC2CCC2)cc1 [1 (g), 4-[2-(4-cyclobutylmethyl-β-methylcinnamoylamino)phenoxy] butanoic acid]"

# Reference: patent publication US5037852A, “Cinnamoylamide derivatives” (Ono Pharmaceutical Co., Ltd., priority 1987, dated 1991)
